Results reported in patent US10676468B2, “N-(3-heteroarylaryl)-4-arylarylcarboxamides and analogs as hedgehog pathway inhibitors and use thereof” (IMPACT Therapeutics, Inc., priority 2012, dated 2020).

Columns and labels:
Format in all cases: cell-based, mouse
[1] = system: Hedgehog Signaling Pathway; assay: SAG-induced differentiation of C3H10T1/2 cells into osteoblastic cells, intracellular alkaline phosphatase activity; details: 1 μM SAG, 5 days, alkaline phosphatase activity (OD405), read-out: IC50 values of compounds that inhibit Hh pathway
Description: (§1) The Application of SAG to Induce Pluripotent Mesenchymal Mouse Embryonic Cell C3H/10T1/2 to Differentiate into Osteoblastic Cells for the Determination of the Inhibitory Activity of N-(3-(1H-benzo[d]imidazol-2-yl)-4-chlorophenyl)-2-methyl-4-((2S,6R)-2,6-dimethylmorpholino)benzamide and Analogs on Hedgehog Signaling Pathway
The intracellular alkaline phosphatase activity is a reliable indication of the differentiation process. Therefore this enzymatic activity can be used to monitor the activity of hedgehog pathway inhibitors.
The C3H10T1/2 cells were grown in DMEM medium supplemented with 10% fetal bovine serum (FBS, Hyclone) at 37° C. with 5% CO2. 10000 cells were sown to each well of a 96-well microplate a day before the experiment and grown overnight. At the day of experiment, the inducing medium and inhibitor solutions were prepared as follows: the reference compound and testing compounds were serially diluted 1 to 3 and 1 to 10 in DMSO to seven concentrations with the eighth concentration being DMSO. A 10-fold dilution was prepared by mixing 10 μL of the DMSO dilution with 90 μL of fresh growing medium. […] Pre-sown cells were taken out from incubator and the medium was removed. To each well, 180 μL inducing medium was added and followed immediately with 20 μL of testing or reference compound dilutions. The testing compound concentrations are between 10 μM and 1 nM. The cells were then return to CO2 incubator to grow additional 5 days at 37° C.
(§2) After incubating for 5 days, the cells were taken out and intracellular alkaline phosphatase activity was tested. The alkaline phosphatase activity was measured as follows:
1) Preparation of Substrate Solution:
(§3) Solution A: A 0.5 mM MgCl2 (Sigma Prod. No. M-0250) solution was prepared.
(§4) After the pH value was adjusted to 9.8 with 5 M HCl at 37° C., the total volume was adjusted to 100 mL.
(§5) After it is completely dissolved the total volume was adjusted to 10 mL with the final concentration being 1 mM.
Substrate reaction medium: To 10 mL of solution B, 250 μL of solution A and 200 μL of solution C were added, and mixed well.
2) the Measurement of Intracellular Alkaline Phosphatase Activity:
(§6) After taking out the cells from the incubator, the cell culture medium was removed and cells were washed twice with PBS. 20 μL of lysis solution (0.2% Triton solution) was added to each well. After being shaken for 30 min at room temperature, each well of cells received 80 μL of substrate reaction medium. The microplate was placed immediately into a VariSkan Flashplate reader and absorbance at OD405 was read as background reading. The plate was replaced back to cell culture incubator at 37° C. for additional 30 min and the absorbance was read again using VariSkan Flash plate reader at OD405.
(§7) The data were analyzed by subtracting the background reading from the reading at 30 min, and the obtained numbers were plotted and analyzed with Prism 5 software (GraphPad). The phosphatase activity (calculated OD405) was plotted against the log concentration of testing compound, and the obtained plot was fitted with non-linear curve fitting equation to calculate IC50 values. The curve fitting equation is Y=Bottom+(Top−Bottom)/(1+10^((X−Log IC50))). X is the logarithm of concentration. Y is the measure of alkaline phosphatase activity (OD405).
(§8) The calculated IC50 value is a measurement of the inhibitory activity of compound to Hh pathway.

[2] = system: Hedgehog Signaling Pathway; assay: SHH-induced differentiation of C3H10T1/2 cells into osteoblastic cells, intracellular alkaline phosphatase activity; details: 10 nM SHH-N, 5 days, alkaline phosphatase activity (OD405), read-out: IC50 values of compounds that inhibit Hh pathway
Experimental: as §1, with “SHH” for “SAG”, “C3H10T1/2” for “C3H/10T1/2”
The C3H10T1/2 cells were grown in DMEM medium supplemented with 10% fetal bovine serum (FBS, Hyclone) at 37° C. with 5% CO2. 10000 cells were sown to each well of a 96-well microplate a day before the experiment and grown overnight. […] The reference compound and testing compounds were serially diluted 1 to 3 and 1 to 10 in DMSO to seven concentrations with the eighth concentration being DMSO. A 10-fold dilution was prepared by mixing 10 μL of the DMSO dilutions with 90 μL of fresh growing medium. Pre-sown cells were taken out from incubator and the medium was removed. To each well, 180 μL of inducing medium containing 10 nM of SHH-N was added and followed immediately with 20 μL of 10× testing or reference compound dilutions. The testing compound concentrations are between 10 μM and 10 nM. The cells were then returned to CO2 incubator to grow additional 5 days at 37° C.
as §2
3) Preparation of Substrate Solution:
as §3, §4, §5
Substrate reaction medium: to 10 mL of solution B, 250 μL of solution A and 200 μL of solution C were added, and mixed well.
4) The Measurement of Intracellular Alkaline Phosphatase Activity:
as §6
as §7, with “Y=Bottom+(Top−Bottom)/(1+10^(X−Log IC50)).” for “Y=Bottom+(Top−Bottom)/(1+10^((X−Log IC50))).”
as §8

[3] = system: Hedgehog Signaling Pathway; assay: Gli-Luc reporter gene cell assay in C3H10T1/2/Gli-Luc cells stimulated with Shh; details: Mus musculus, C3H 10T1/2, 24 h, 30 nM Shh, luciferase activity (RLU), read-out: IC50 values of compounds that inhibit Hh pathway
Description: The Application of Reporter Gene Cell Assay for the Determination of the Inhibitory Activity of N-(3-(1H-benzo[d]imidazol-2-yl)-4-chlorophenyl)-2-methyl-4-((2S,6R)-2,6-dimethylmorpholino) benzamide and Analogs on Hedgehog Signaling Pathway
The binding of Sonic hedgehog (Shh) to its receptor Patched 1 initiates numerous intracellular signal transmission, and leads to the nuclear translocation of Gli and the elevated transcription of Gli target genes. When C3H10T1/2 cells are stably transfected with the Gli-Luc plasmids containing the luciferase gene under the control of Gli response element and stimulated with Shh, the expression of luciferase is elevated. Luciferase activity is indicative of the hedgehog signaling pathway activity. Therefore, the inhibitory activity of compounds on hedgehog signaling pathway can be measured using the luciferase activity when the transfected cells are stimulated with Shh.
The day before experiment, C3H10T1/2/Gli-Luc cells in log phase of growth were seeded into 96 well plate at a density of 20000 cells per well. The cells were maintained in DMEM (Hyclone) supplemented with 10% FBS (Hyclone) and incubated at 37° C. with 5% CO2 overnight. The compounds to be examined were diluted into 7 different concentrations by series of dilutions (⅓ and 1/10), and the eighth point of concentration is the DMSO control. Those solutions were diluted 100-fold in the fresh growth medium. The cells were taken out of the incubator and the medium of cultured cells were removed. Then, each well was added in an orderly manner with 80 μL of fresh growth medium, 20 μL of medium pre-dilution of positive compound and compounds to be tested, as well as 100 μL of growth medium containing 30 nM of Shh. The cells are returned to the incubator, and incubated for 24 hours.
Measurement of luciferase activity: After taking the 96 well plate out of the incubator, the supernatants were discarded and the cells were washed twice with PBS. Thereafter, each well was dispensed with 20 μL of lysis buffer (Promega E1531), and the plate was shaken for 30 min at room temperature. Following transferring 5 μL of cell lysate into 384 well plate (Greiner 781074), adding 25 μL of luciferase reaction buffer (Promega E1501) into each well and mixing the plate, the relative light unit (RLU) was immediately captured by VarioSkan Flash.
The data were analyzed with Prism 5 software (GraphPad). The relative light unit (RLU) was plotted against the log concentration of testing compound, and the obtained plot was fitted with non-linear curve fitting equation to calculate IC50 values. The curve fitting equation is Y (RLU)=Bottom+(Top−Bottom)/(1+10^((X−Log IC50))). X is the logarithm of concentration. Y is the measure of relative light unit (RLU).
as §8

[4] = Mus musculus, C3H 10T1/2, 120 h

IC50 [1, 4] | IC50 [2, 4] | IC50 [3] | Molecule | IC50 [1] | IC50 [2]
> 10000 nM | 409 nM | – | Cc1cc(-c2ccc(C(F)(F)F)cc2)ccc1C(=O)Nc1cc(-c2nc3ccccc3[nH]2)cc(C(F)(F)F)c1 [Example 62, N-(3-(1H-benzo[d]imidazol-2-yl)-5-(trifluoromethyl)phenyl)-3-methyl-4′-(trifluoromethyl)biphenyl-4-carboxamide] | – | –
1340 nM | 39 nM | – | Cc1cc(-c2ccc(C(F)(F)F)cc2)ccc1C(=O)Nc1cc(Cl)cc(-c2nc3ccccc3[nH]2)c1 [Example 63, N-(3-(1H-benzo[d]imidazol-2-yl)-5-chlorophenyl)-3-methyl-4′-(trifluoromethyl)biphenyl-4-carboxamide] | – | –
636 nM | 1130 nM | – | Cc1cc(-c2ccc(C(F)(F)F)cc2)ccc1C(=O)Nc1cccc(-c2nc3ccccc3[nH]2)c1Cl [Example 64, N-(3-(1H-benzo[d]imidazol-2-yl)-2-chlorophenyl)-3-methyl-4′-(trifluoromethyl)biphenyl-4-carboxamide] | – | –
522 nM | 501 nM | – | Cc1c(NC(=O)c2ccc(N3C[C@@H](C)O[C@@H](C)C3)nc2)cccc1-c1nc2ccccc2[nH]1 [Example 65, N-(3-(1H-benzo[d]imidazol-2-yl)-2-methylphenyl)-6-((2S,6R)-2,6-dimethylmorpholino)nicotinamide] | – | –
> 10000 nM | 467 nM | – | Cc1cc(-c2ccc(C(F)(F)F)cc2)ccc1C(=O)Nc1cccc(-c2nc3ccccc3[nH]2)n1 [Example 72, N-(6-(1H-benzo[d]imidazol-2-yl)pyridin-2-yl)-3-methyl-4′-(trifluoromethyl)biphenyl-4-carboxamide] | – | –
163 nM | 134 nM | – | Cc1cc(-c2ccc(C(F)(F)F)cc2)ccc1C(=O)Nc1cccc(-c2nc3ccccn3n2)c1 [Example 73, N-(3-([1,2,4]triazolo[1,5-a]pyridin-2-yl)phenyl)-3-methyl-4′-(trifluoromethyl)biphenyl-4-carboxamide] | – | –
191 nM | 4.5 nM | – | Cc1cc(-c2ccc(C(F)(F)F)cc2)ccc1C(=O)Nc1ccc(F)c(-c2nc3ccccc3[nH]2)c1 [Example 74, N-(3-(1H-benzo[d]imidazol-2-yl)-4-fluorophenyl)-3-methyl-4′-(trifluoromethyl)biphenyl-4-carboxamide] | – | –
17 nM | 2.9 nM | – | Cc1cc(-c2ccc(C(F)(F)F)cc2)ccc1C(=O)Nc1ccc(Br)c(-c2nc3ccccc3[nH]2)c1 [Example 75, N-(3-(1H-benzo[d]imidazol-2-yl)-4-bromophenyl)-3-methyl-4′-(trifluoromethyl)biphenyl-4-carboxamide] | – | –
> 10000 nM | > 10000 nM | – | COc1ccc(NC(=O)c2ccc(-c3ccc(C(F)(F)F)cc3)cc2C)cc1-c1nc2ccccc2[nH]1 [Example 76, N-(3-(1H-benzo[d]imidazol-2-yl)-4-methoxyphenyl)-3-methyl-4′-(trifluoromethyl)biphenyl-4-carboxamide] | – | –
312 nM | 45 nM | – | Cc1cc(N2CCN(C)CC2)ccc1C(=O)Nc1ccc(Cl)c(-c2nc3ccccc3[nH]2)c1 [Example 92, N-(3-(1H-benzo[d]imidazol-2-yl)-4-chlorophenyl)-2-methyl-4-(4-methylpiperazin-1-yl)benzamide] | – | –
47 nM | 3.9 nM | – | Cc1ccc(NC(=O)c2ccc(N3C[C@@H](C)N(C)[C@@H](C)C3)cc2Cl)cc1-c1nc2ccccc2[nH]1 [Example 102, N-(3-(1H-benzo[d]imidazol-2-yl)-4-methylphenyl)-2-chloro-4-((3S,5R)-3,4,5-trimethylpiperazin-1-yl)benzamide] | – | –
698 nM | 76 nM | – | Cc1cc(N2CCNCC2)ccc1C(=O)Nc1ccc(Cl)c(-c2nc3ccccc3[nH]2)c1 [Example 108, N-(3-(1H-benzo[d]imidazol-2-yl)-4-chlorophenyl)-2-methyl-4-(piperazin-1-yl)benzamide] | – | –
– | – | 0.28 nM | C[C@@H]1CN(c2cc(Cl)c(C(=O)Nc3ccc(Cl)c(-c4ncc(-c5ccsc5)[nH]4)c3)cc2F)C[C@H](C)N1C [Example 142, N-(3-(5-(thiophen-3-yl)-1H-imidazol-2-yl)-4-chlorophenyl)-2-chloro-5-fluoro-4-((3S,5R)-3,4,5-trimethylpiperazin-1-yl)benzamide] | – | –
– | – | – | N-(3-(imidazo[1,2-a]pyridin-2-yl)-4-chlorophenyl)-3-methyl-4′-(trifluoromethyl)biphenyl-4-carboxamide [Example 67] | > 10000 nM | 68 nM
